Source: US20230131192A1, “1H-PYRAZOLO[4,3-d]PYRIMIDINE COMPOUNDS AS TOLL-LIKE RECEPTOR 7 (TLR7) AGONISTS” (BRISTOL-MYERS SQUIBB COMPANY, priority 2020, published 2023)

Tests used:
[1] = molecular target: T1, human TLR7 (Homo sapiens, UniProt Q9NYK1); assay: Human TLR7 agonist (reporter) activity assay, HEK-Blue TLR7 cells, SEAP reporter; type: cell-based; conditions: 18 h treatment, average where assay was performed multiple times, read-out: hTLR7 Agonism EC50
T1 construct: host or cells: HEK-Blue TLR7 cells (engineered human embryonic kidney cells)
T1 sequence (Q9NYK1 27-1049): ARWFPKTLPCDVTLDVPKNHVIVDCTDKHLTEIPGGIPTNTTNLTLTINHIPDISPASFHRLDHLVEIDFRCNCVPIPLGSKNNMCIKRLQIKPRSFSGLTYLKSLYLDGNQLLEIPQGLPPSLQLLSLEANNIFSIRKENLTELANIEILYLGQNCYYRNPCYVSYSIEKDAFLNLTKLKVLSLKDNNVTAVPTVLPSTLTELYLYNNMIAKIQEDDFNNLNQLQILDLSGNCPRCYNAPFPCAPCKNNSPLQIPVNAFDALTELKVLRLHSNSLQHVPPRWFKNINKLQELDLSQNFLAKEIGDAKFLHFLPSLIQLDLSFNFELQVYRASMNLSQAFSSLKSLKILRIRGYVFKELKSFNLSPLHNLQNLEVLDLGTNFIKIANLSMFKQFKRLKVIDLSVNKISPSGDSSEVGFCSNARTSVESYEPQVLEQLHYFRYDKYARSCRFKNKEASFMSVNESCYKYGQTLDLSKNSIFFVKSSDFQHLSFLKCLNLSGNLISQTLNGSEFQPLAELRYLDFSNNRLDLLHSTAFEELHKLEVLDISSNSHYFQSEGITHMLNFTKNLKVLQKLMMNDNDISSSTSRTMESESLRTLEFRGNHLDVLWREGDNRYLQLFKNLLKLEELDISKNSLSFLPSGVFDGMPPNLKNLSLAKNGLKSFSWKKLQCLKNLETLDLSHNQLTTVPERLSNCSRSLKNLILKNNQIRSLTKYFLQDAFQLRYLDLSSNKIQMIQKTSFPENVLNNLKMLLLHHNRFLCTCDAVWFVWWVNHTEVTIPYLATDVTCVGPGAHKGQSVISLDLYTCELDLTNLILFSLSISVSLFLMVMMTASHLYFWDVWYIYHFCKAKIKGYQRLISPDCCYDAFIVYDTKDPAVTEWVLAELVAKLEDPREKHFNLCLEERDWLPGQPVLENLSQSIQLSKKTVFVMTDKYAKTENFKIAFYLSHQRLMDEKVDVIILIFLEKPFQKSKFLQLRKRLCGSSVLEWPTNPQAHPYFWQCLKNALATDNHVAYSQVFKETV
Description: This procedure describes a method for assaying human TLR7 (hTLR7) agonist activity of the compounds disclosed in this specification.
HEK-Blue™ TLR7 cells were added to each well of a 384-well tissue-culture plate (15,000 cells per well) and incubated 16-18 h at 37° C., 5% CO2. Compounds (100 nl) were dispensed into wells containing the HEK-Blue™ TLR cells and the treated cells were incubated at 37° C., 5% CO2. After 18 h treatment ten microliters of freshly-prepared Quanti-Blue™ reagent (Invivogen) was added to each well, incubated for 30 min (37° C., 5% CO2) and SEAP levels measured using an Envision plate reader (OD=620 nm). The half maximal effective concentration values (EC50; compound concentration which induced a response halfway between the assay baseline and maximum) were calculated.

[2] = system: CD69; assay: Induction of CD69 in human whole blood; type: cell-based; conditions: 17 hrs, CD69 surface staining, 100% set to 1 uM of resiquimod, average where assay was performed multiple times, read-out: hWB CD69 EC50
Description: The induction of Type I interferon (IFN) MX-1 genes and the B-cell activation marker CD69 are downstream events that occur upon activation of the TLR7 pathway. The following is a human whole blood assay that measures their induction in response to a TLR7 agonist.
Heparinized human whole blood was harvested from human subjects and treated with test TLR7 agonist compounds at 1 mM. The blood was diluted with RPMI 1640 media and Echo was used to predot 10 nL per well giving a final concentration of 1 uM (10 nL in 10 uL of blood). After mixing on a shaker for 30 sec, the plates were covered and placed in a 37° C. chamber for o/n=17 hrs. Fixing/lysis buffer was prepared (5×→1× in H2O, warm at 37° C.; Cat # BD 558049) and kept the perm buffer (on ice) for later use.
For surface markers staining (CD69): prepared surface Abs: 0.045 ul hCD14-FITC (ThermoFisher Cat # MHCD1401)+0.6 ul hCD19-ef450 (ThermoFisher Cat #48-0198-42)+1.5 ul hCD69-PE (cat # BD555531)+0.855 ul FACS buffer. Added 3 ul/well, spin1000 rpm for 1 min and mixed on shaker for 30 sec, put on ice for 30 mins. Stop stimulation after 30 minutes with 70 uL of prewarmed 1× fix/lysis buffer and use Feliex mate to resuspend (15 times, change tips for each plate) and incubate at 37 C for 10 minutes.
Centrifuge at 2000 rpm for 5 minutes aspirate with HCS plate washer, mix on shaker for 30 sec and then wash with 70 uL in dPBS and pelleted 2×s (2000 rpm for 5 min) and 50 ul wash in FACS buffer pelleted 1×s(2000 rpm for 5 min). Mix on shaker for 30 sec. For Intracellular markers staining (MX-1): Add 50 ul of BD Perm buffer III and mix on shaker for 30 sec. Incubate on ice for 30 minutes (in the dark). Wash with 50 uL of FACS buffer 2× (spin @2300 rpm×5 min after perm) followed by mixing on shaker for 30 sec. Resuspended in 20 ul of FACS buffer containing MX1 antibody ( )(4812)-Alexa 647: Novus Biologicals #NBP2-43704AF647) 20 ul FACS bf+0.8 ul hlgG+0.04 ul MX-1. Spin 1000 rpm for 1 min, mix on shaker for 30se and the samples were incubated at RT in the dark for 45 minutes followed by washing 2×FACS buffer (spin @2300 rpm×5 min after perm). Resuspend 20 ul (35 uL total per well) of FACS buffer and cover with foil and place in 4° C. to read the following day. Plates were read on iQuePlus. The results were loaded into toolset and […] curves are generated in curve master. The y-axis 100% is set to 1 uM of resiquimod.

Compound | EC50 [1] | EC50 [2]
COc1cc(CNC2CCOCC2)cnc1Cn1ncc2nc(N)nc(NCc3noc(C)n3)c21 [Compound 130, 1-[(3-methoxy-5-{[(oxan-4-yl)amino]methyl}pyridin-2-yl)methyl]-N7-[(5-methyl-1,2,4-oxadiazol-3-yl)methyl]-1H-pyrazolo[4,3-d]pyrimidine-5,7-diamine] | 1350 nM | 85 nM
COc1cc(CN2CCN(CCO)CC2)cnc1Cn1ncc2nc(N)nc(NCc3noc(C)n3)c21 [Compound 131, 2-[4-({6-[(5-amino-7-{[(5-methyl-1,2,4-oxadiazol-3-yl)methyl]amino}-1H-pyrazolo[4,3-d]pyrimidin-1-yl)methyl]-5-methoxypyridin-3-yl}methyl)piperazin-1-yl]ethan-1-ol] | 1000 nM | 72.7 nM
